The record followed here is patent US20240315242A1, “Antibacterial Compound” (LG Chem, Ltd., priority 2021, published 2024).

The assay deals with E. coli (ATCC 25922). The experiment in a line: Evaluation of antibacterial property against E. coli (absorbance at 600 nm). The class given is cell-based, Escherichia coli. The conditions noted are these: injection amount of compound 0.01 g in 25 mL nutrient broth with E. coli ATCC 25922 at 3000 CFU/mL; 16 hours at 35° C.; absorbance at 600 nm vs pure culture medium. As to the method: [formula] • in the equation, • As(Asample) represents absorbance of the culture medium containing the bacteriostatic substance at a wavelength of 600 nm, and • A0(Areference) represents absorbance of the pure culture medium without the bacteriostatic substance at a wavelength of 600 nm.
(1) Evaluation of Antibacterial Property Against E. coli
25 mL of a nutrient broth culture medium inoculated with E. coli (ATCC 25922) at 3000 CFU/mL was transferred to a 50 ml conical tube, and then the antibacterial compounds (bacteriostatic substances) prepared in Preparation Examples and Comparative Preparation Examples were injected in each amount described in Table 2 below, followed by sufficiently mixing. Thereafter, incubation was performed for 16 hours in a shaking incubator (Visiontech, VS-37SIF) maintained at 35° C.
The incubated solution was diluted to ⅕ using 1×PBS buffer solution, and absorbance at the wavelength of 600 nm was measured for the diluted solution using a UV-Vis Spectrophotometer (K Lab, Optizen POP). In addition, E. coli (ATCC 25922) was cultured in a pure culture medium without the antibacterial compound for 16 hours in a shaking incubator (VISION TECH, VS-37SIF) maintained at 35° C., which was prepared as a control, and absorbance at the wavelength of 600 nm was measured in the same manner as above.
Then, antibacterial rates (%) of E. coli (ATCC 25922) were calculated according to the following Equation 1, and the results are shown in Table 2 below.
[formula] • in the equation, • As(Asample) represents absorbance of the culture medium containing the bacteriostatic substance at a wavelength of 600 nm, and • A0(Areference) represents absorbance of the E. coli pure culture medium without the bacteriostatic substance at a wavelength of 600 nm.

With `C=CC(=O)OCC[N+](C)(C)CCCCCCCC` [Compound 6], the “Antibacterial rate (%)” value is 70.6%. The figure for `C=CC(=O)OCC[N+](C)(C)CCCCCCCC` [Compound E, reference compound] is 62.3%. The figure for `C=C(C)C(=O)OCC[N+](C)(C)CCCCCCCC` [Compound B, reference compound] is 69.2%; for `C=C(C)C(=O)OCC[N+](C)(C)CCCCCCCCCC` [Compound 1] it is 95.3%; for `C=C(C)C(=O)OCC[N+](C)(C)CCCCCCCCCCCC` [Compound 2] it is 98.1%. The value for `C=CC(=O)OCC[N+](C)(C)CCCCCCCCCCCC` [Compound 3] was 97.3%; that for `C=CC(=O)OCC[N+](C)(C)CCCCCCCCCC` [Compound 5] was 95.8%.
